Measured values: patent publication US10973748B2, “Compositions and methods for lightening skin and reducing hyperpigmentation” (Versitech Limited, priority 2016, dated 2021)

Test system: MelanoDerm (Mel-300-A) epidermal equivalents containing melanocytes
Experiment: Depigmentation in artificial skin model: brightness and L* value
Format: cell-based, human
Details: 6-CEPN 10 μM, 8-CEPQ 5 μM
Protocol: Epidermal equivalents containing melanocytes (Mel-300-A) were maintained according to the manufacturer's instructions. Mel-300-A tissue was cultured in EPI-100-NMM-113 medium for 14 days. Agents were dissolved in tissue culture medium and changed every other day. The test agents were either (1) rapamycin (2.5 μM), as the positive control in depigmentation, (2) 6-CEPN (10 μM), or (3) 8-CEPQ (5 μM). The concentration of rapamycin used was lower than 6-CEPN and 8-CEPQ, as rapamycin is toxic to cells at higher concentration. Pigmentation of these skin equivalents was compared against treatment of cells with a culture medium only (denoted as “vehicle”). Tissue viability was assessed on day 14 by CCK-8 assay as described in Example 1. On day 14, single tissues were harvested and photographed. The L* parameter was used to evaluate skin lightening or darkening. The lighter the skin, the greater the L* value. ΔL* value was measured by a Chroma Meter CR400 (Konica Minolta) for an evaluation of lightening as a function of time. Three tissues for each treatment were frozen for the Solvable Melanin assay (Bessou-Touya et al., “Chimeric human epidermal reconstructs to study the role of melanocytes and keratinocytes in pigmentation and photoprotection.” Journal of investigative dermatology 111(6):1103-1108 (1998)). Additional tissues were fixed by 10% formanin. For melanin staining in paraffin-embedded tissues, Fontana-Masson silver staining was used as previously detailed (Barbosa et al., “A simple and economical modification of the Masson-Fontana method for staining melanin granules and enterochromaffin cells.” Stain technology 59(4):193-196 (1984)).

O=C1C[C@@H](c2ccc(O)cc2)Oc2cc(O)c(/C=C/c3ccccc3)c(O)c21 [6-CEPN, 6-C-(E-phenylethenyl)-naringenin]
brightness of the tissues (visual examination) (14 days, rapamycin 2.5 μM): increased the brightness of the tissues | L* value vs negative control (day 14, rapamycin 2.5 μM): increased the L* value
